Results: ChEMBL document CHEMBL5579878, “Allosteric Activation of Protein Phosphatase 5 with Small Molecules” (J Med Chem, 2024)
Substitutions are numbered along the chain they refer to. Calls of active or inactive are those of the source. The calls are words filed in the database; no cut-off is given here.

Legend:
[1] = target: T1, Serine/threonine-protein phosphatase 5 (Homo sapiens, UniProt P53041); assay: Binding affinity to His-tagged human PP5 phosphatase domain extracted from Escherichia coli BL21 assessed as dissociation constant by ITC analysis
T1 sequence (P53041 whole entry): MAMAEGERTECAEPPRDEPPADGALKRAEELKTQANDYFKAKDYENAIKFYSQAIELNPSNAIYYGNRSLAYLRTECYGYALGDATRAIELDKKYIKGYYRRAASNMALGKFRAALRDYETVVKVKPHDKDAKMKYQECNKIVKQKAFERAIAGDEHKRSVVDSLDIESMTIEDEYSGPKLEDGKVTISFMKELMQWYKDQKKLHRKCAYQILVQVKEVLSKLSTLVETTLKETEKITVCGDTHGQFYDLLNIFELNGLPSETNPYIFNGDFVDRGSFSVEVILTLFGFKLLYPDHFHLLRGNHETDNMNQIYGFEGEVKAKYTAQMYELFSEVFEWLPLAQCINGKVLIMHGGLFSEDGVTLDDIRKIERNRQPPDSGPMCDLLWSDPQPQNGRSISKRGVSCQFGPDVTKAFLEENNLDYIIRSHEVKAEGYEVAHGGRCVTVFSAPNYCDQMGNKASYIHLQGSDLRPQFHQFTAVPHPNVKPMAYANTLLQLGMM

HCT-116 [2] = assay: Effect on AT13387-induced HSF1 expression in human HCT-116 cells at 50 uM incubated for 24 hrs by Western blot analysis; format: functional, cell-based
[3] = system: T2, Serine/threonine-protein phosphatase 5 (Homo sapiens), P53041 [V429A]; assay: Binding affinity to PP5 V429A mutant (unknown origin) by ITC analysis
T2 sequence (whole entry): T1 sequence (P53041 whole entry) with V429A

[4] = target: T3, Tyrosine-protein phosphatase non-receptor type 11 (Homo sapiens) (UniProt Q06124); assay: Inhibition of SHP2 (unknown origin) using DiFMUP as substrate at 0.01 to 1000 uM; settings: dose 0.01-1000 µM
T3 sequence (whole entry): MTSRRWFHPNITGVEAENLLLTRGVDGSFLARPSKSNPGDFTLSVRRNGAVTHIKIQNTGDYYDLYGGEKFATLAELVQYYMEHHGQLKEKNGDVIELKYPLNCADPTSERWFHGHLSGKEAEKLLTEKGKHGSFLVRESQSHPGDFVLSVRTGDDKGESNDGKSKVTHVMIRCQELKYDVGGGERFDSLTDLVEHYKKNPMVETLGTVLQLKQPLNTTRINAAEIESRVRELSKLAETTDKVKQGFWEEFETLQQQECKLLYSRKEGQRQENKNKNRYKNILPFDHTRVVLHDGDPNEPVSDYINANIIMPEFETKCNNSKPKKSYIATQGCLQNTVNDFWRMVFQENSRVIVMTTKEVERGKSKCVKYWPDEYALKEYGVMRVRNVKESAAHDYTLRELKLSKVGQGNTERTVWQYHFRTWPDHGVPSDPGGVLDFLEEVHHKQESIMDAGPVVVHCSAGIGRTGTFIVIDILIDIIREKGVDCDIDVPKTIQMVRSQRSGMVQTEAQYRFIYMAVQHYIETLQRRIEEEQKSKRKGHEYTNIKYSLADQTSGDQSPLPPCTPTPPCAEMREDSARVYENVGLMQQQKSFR

[5] = target: T4, Serine/threonine-protein phosphatase 5 (Homo sapiens) (UniProt P53041); assay: Binding affinity to human PP5 extracted from Escherichia coli BL21 using CDC37 as substrate assessed as increase in dephosphorylation of p-CDC37 at S13 residue incubated for 1 hrs by Western blot analysis; settings: filed as activator, dose 5-50 µM
T4 sequence (whole entry): T1 sequence (P53041 whole entry)

[6] = system: T2, Serine/threonine-protein phosphatase 5 (Homo sapiens), P53041 [V429A]; assay: Activation of PP5 V429A mutant (unknown origin) using pNPP as substrate assessed as increase in phosphatase activity at 10 to 200 uM incubated for 30 mins by spectrophotometric analysis; settings: dose 10-200 µM
[7] = target: T4, Serine/threonine-protein phosphatase 5 (Homo sapiens); assay: Induction of thermal stabilization of PP5 in human HCT-116 cells assessed as increase in melting temperature at 100 uM incubated for 12 hrs at 37 to 58 degreeC by CETSA; format: cell-based
[8] = target: T5, Hsp90 co-chaperone Cdc37 (Homo sapiens) (UniProt Q16543); assay: Induction of CDC37 dephosphorylation at S13 residue in PP5-KO human HCT-116 cells upto 100 uM incubated for 24 hrs by Western blot analysis; format: cell-based
T5 sequence (whole entry): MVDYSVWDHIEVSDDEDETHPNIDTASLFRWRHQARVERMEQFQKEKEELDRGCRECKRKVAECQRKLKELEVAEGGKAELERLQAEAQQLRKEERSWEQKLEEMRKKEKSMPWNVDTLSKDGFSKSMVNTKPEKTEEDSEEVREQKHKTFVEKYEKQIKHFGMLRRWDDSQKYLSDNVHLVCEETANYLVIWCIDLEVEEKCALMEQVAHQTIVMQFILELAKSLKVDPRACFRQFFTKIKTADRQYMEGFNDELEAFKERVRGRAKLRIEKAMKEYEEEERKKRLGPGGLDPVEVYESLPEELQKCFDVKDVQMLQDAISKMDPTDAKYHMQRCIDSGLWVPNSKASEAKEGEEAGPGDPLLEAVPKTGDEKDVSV

HCT-116 [9] = assay: Effect on HSP27 expression level in human HCT-116 cells at 1 to 100 uM incubated for 24 hrs by Western blot analysis; format: functional, cell-based; settings: dose 1-100 µM
HCT-116 [10] = assay: Downregulation of AT13387-induced HSP40 expression in human HCT-116 cells at 50 uM incubated for 24 hrs by Western blot analysis; format: functional, cell-based
HCT-116 [11] = assay: Enhancement of HSP90 inhibitor AT13387-induced antiproliferative activity against human HCT-116 cells assessed as fold change in HSP90 inhibitor AT13387 IC50 at 50 uM incubated for 72 hrs by CCK8 assay; format: functional
HCT-116 [12] = assay: Antitumor activity against human HCT-116 cells xenografted in BALB/c nude mouse at 60 mg/kg, ip administered every other day for 14 days; format: functional, organism-based; settings: time 14.0 day

N=c1oc2cc(F)cc(F)c2cc1C(N)=S
Kd [1]: 811 nM
Activity (HCT-116 [2]): inactive
Activity [3]: inactive
inhibition [4]: inactive
Activity [5]: Dose-Dependent Effect
Activity [6]: inactive
ΔTm [7]: 1.48 °C
Activity [8]: inactive
Activity (HCT-116 [9]): inactive
Activity (HCT-116 [10]): Active
fold change (FC) (HCT-116 [11]): 2
Activity (HCT-116 [12]): inactive
